From patent US20220372040A1, “METTL3 MODULATORS” (Accent Therapeutics, Inc., priority 2020, published 2022) come the findings set out here.

For orientation: IC50 means the midpoint of a concentration-inhibition curve.

The structures appear in SMILES notation. Bounds are passed on as bounds.

In one test the target is METTL3/METTL14 (Homo sapiens, UniProt Q86U44). The test can be described thus: METTL3-14 standard enzyme assay (3H-SAM flashplate scintillation). The class given is biochemical. Particulars: METTL3/METTL14 2.5 nM, RNA 100 nM, 3H-SAM 100 nM, 30 min. Put shortly: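 Radiometric methylation readout: biotinylated RNA substrate UCUGGACUAAA and 3H-SAM, each 100 nM final, reacted 30 min at ambient temperature with 2.5 nM enzyme complex after 5 min compound preincubation (HEPES pH 7.5 buffer, KCl, MgCl2, DTT). Excess unlabelled SAM (15 μM) stopped reactions before streptavidin flashplate capture.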
METTL3/METTL14, sequence (Q86U44 whole entry, species assumed): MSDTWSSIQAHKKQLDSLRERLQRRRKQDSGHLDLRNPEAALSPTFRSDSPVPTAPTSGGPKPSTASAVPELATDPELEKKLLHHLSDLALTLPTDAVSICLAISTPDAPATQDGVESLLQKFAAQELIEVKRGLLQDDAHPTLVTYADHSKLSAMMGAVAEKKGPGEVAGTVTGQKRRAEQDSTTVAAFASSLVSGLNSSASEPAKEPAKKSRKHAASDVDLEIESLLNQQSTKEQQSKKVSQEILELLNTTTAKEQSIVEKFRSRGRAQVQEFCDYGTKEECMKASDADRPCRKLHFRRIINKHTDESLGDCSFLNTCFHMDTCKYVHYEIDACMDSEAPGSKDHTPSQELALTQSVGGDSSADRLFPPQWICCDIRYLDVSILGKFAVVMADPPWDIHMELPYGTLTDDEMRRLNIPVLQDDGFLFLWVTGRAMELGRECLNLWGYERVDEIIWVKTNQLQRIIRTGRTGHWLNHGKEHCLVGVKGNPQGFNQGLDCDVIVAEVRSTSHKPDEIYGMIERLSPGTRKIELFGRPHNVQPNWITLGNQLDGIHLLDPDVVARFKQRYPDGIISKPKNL
METTL3/METTL14, sequence (Q9HCE5 whole entry partner, species assumed): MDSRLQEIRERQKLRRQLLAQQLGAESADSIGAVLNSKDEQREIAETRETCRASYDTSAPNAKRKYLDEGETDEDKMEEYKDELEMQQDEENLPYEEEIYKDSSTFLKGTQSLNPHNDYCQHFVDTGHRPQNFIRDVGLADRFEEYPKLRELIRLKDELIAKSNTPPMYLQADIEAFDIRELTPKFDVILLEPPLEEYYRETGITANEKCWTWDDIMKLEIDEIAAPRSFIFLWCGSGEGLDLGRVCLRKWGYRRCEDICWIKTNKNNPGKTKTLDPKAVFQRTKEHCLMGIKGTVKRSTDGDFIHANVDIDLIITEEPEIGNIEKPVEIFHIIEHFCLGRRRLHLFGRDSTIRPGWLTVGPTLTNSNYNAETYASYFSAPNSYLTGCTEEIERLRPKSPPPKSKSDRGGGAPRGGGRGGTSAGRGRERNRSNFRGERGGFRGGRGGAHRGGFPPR

The next test addresses PRMT5-MEP50 (Homo sapiens, UniProt O14744). The test can be described thus: PRMT5 assay (3H-SAM flashplate scintillation). The test is classed as biochemical. Particulars: PRMT5-MEP50 2.5 nM, histone H4 peptide 100 nM, 3H-SAM 250 nM, 60 min. In outline: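 Radiometric methyltransferase read-out: after 60 min reaction, excess unlabelled SAM (15 μM) stops turnover and biotinylated H4 peptide (100 nM) carrying 3H-methyl from 250 nM 3H-SAM is captured on streptavidin flashplates (2 h, 25° C) for scintillation counting. Enzyme, 2.5 nM PRMT5-MEP50, was preincubated 5 min with compound in pH 8.0 Tris buffer with DTT and Tween.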

For another test, the system named is MOLM-13 cells. The test can be described thus: MOLM-13 96 Hour cell proliferation assay (Cell Titer-Glo). The test is classed as cell-based. Particulars: Homo sapiens. On the procedure:
MOLM-13 96 Hour Cell Proliferation Assay
MOLM-13 (DSMZ) cells were seeded at 600 cells per well in a volume of 44 μL in a Greiner Bio-One CELLSTAR™ 384 Well Polystyrene Cell Culture clear bottom microplate in RPMI 1640 media containing 10% fetal bovine serum using a Multidrop Combi (ThermoFisher Scientific). Cells were incubated overnight at 37° C. in a humidified tissue culture incubator. To prevent evaporation or to reduce edge effect, add 50 μL or more H2O to an empty plate, cover, and place on top of the cell plates. The Mosquito® HTS Liquid Handler was used to make a compound/media intermediate plate by aliquoting 1 μL of compound from the initial compound dilution plate (concentrations ranging from 10.0 mM to 38.0 nM in 100% DMSO) into Bio-One 384-well polypropylene conical bottom microplate containing 49 μL of media containing the appropriate serum (50-fold dilution, 2% DMSO, compound concentrations ranging from 200.0 μM and […]). The Apricot liquid handling system was used to transfer 6.2 μL compounds from the intermediate plate into the seeding plate containing 44 μL cells (8-fold dilution spanning concentrations 25.0 μM to […], 0.25% DMSO final), and placed in a humidified tissue culture incubator at 37° C. After 96 hours, 25 μL of Cell Titer-Glo reagent (Promega) was added to each well using an Integra liquid handling system. The plate was protected from light using TopSeal-A (Black) film over the entire plate, added White Bottom seal film on the bottom of the entire plate for a better reading on the Envision, and placed on an IKA plate shaker for at 300 rpm for 10 minutes at room temperature. The plate was read on an EnVision plate reader (Perkin Elmer) using the Ultra Sensitive Luminescence protocol. Data analysis was performed by normalizing the raw luminescence units to an average of the positive control values for staurosporine (100% cell death) and the negative control values for DMSO (0% cell death). An IC50 was calculated using a 4-parameter logistic nonlinear regression model in GraphPad Prism.
(In general: ATP-based viability assays read luminescence as a measure of living cells.)

For another test, the target named is METTL1/WDR4 (Homo sapiens, UniProt Q9UBP6). In words: METTL1 assay (3H-SAM flashplate scintillation). The class given is biochemical. Particulars: METTL1/WDR4 6.25 nM, RNA 25 nM, 3H-SAM 60 nM, 20 min; read-out: METTL1 IC50. In outline: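 Radiometric methyltransfer by METTL1/WDR4 (6.25 nM f.c., 5 min preincubation) at ambient temperature in HEPES pH 7.5, KCl, MgCl2, DTT; started with 25 nM 3′-biotinylated RNA and 60 nM 3H-SAM, run 20 min, quenched with 15 μM cold SAM. Product captured on streptavidin flashplates (2 h, 25° C), counted by scintillation.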
METTL1/WDR4, sequence (Q9UBP6 whole entry, species assumed): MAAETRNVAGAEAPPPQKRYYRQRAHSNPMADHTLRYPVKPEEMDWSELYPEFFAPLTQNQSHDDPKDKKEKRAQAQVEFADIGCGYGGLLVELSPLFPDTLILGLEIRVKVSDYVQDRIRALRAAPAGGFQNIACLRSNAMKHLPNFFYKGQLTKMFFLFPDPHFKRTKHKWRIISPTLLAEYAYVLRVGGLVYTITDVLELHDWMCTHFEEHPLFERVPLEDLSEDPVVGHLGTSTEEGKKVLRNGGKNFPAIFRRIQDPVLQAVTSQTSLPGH
METTL1/WDR4, sequence (P57081 whole entry partner, species assumed): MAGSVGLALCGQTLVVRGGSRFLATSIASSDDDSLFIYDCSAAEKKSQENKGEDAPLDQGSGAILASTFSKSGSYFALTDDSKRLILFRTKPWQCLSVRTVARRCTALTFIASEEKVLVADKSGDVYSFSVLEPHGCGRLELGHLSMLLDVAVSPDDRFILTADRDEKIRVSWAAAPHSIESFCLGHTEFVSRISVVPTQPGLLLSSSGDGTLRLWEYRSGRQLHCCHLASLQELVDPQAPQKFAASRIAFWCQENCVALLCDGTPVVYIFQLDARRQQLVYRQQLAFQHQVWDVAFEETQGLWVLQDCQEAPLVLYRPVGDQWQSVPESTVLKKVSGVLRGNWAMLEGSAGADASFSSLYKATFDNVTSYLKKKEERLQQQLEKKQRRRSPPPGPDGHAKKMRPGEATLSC

The target in the next test is T1, METTL16 (Homo sapiens, UniProt Q86W50).
T1 sequence (Q86W50 1-562): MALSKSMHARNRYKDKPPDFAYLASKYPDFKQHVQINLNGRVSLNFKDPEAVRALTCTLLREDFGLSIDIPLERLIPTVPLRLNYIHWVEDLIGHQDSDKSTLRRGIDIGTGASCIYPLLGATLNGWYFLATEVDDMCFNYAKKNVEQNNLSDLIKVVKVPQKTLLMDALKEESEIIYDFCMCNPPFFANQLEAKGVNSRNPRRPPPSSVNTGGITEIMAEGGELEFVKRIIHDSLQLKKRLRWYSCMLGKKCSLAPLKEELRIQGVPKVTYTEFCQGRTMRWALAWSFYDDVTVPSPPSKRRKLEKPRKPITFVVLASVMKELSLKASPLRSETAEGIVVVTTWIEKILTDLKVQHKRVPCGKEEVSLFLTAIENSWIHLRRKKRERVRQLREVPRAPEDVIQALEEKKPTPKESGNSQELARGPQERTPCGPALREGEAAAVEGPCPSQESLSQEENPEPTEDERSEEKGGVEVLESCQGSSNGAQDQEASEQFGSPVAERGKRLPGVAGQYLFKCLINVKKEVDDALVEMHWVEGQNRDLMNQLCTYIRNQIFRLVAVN
The test can be described thus: METTL16 assay (3H-SAM flashplate scintillation). Conditions: METTL16 100 nM, RNA 50 nM, 3H-SAM 200 nM, SAM 800 nM, 20 min. The class given is biochemical. On the procedure:
Assays were performed in a 25 μl-volume in 384-well V-bottom polypropylene microplates (Greiner Bio-One, cat. No. 781280) at ambient temperature. Optimized 1× assay buffer was 20 mM HEPES pH 7.5, 50 mM KCl, 1 mM DTT, 0.01% Tween, 0.01% BSG, 0.004 U/μl RNAseOUT (cat. No. 10777019, ThermoFisher Scientific, Waltham, Mass.). For compound screening METTL16 (final concentration, f.c.=100 nM) was added using a Multidrop Combi (ThermoFisher Scientific, Waltham, Mass.) and preincubated for 5 min. Reactions were started by adding 3′ biotinylated RNA ([…]-biotin) (f.c.=50 nM), 3H-SAM (f.c.=200 nM) and non-radiolabeled SAM (f.c.=800 nM) substrates. Reactions proceeded for 20 minutes and were quenched with excess non-radioactive SAM (f.c.=100 μM). The reactions were then transferred to streptavidin-coated flashplates and incubated for 2 hours at 25° C. Following two washing cycles with 0.1% Tween-20, the plates were sealed and read on a TopCount (PerkinElmer, Waltham, Mass.) plate-based scintillation counter. For determination of kinetic parameters, reaction times were optimized so that measurements were taken during the initial velocity phase of the reaction.

PRMT5-MEP50, sequence (O14744 whole entry): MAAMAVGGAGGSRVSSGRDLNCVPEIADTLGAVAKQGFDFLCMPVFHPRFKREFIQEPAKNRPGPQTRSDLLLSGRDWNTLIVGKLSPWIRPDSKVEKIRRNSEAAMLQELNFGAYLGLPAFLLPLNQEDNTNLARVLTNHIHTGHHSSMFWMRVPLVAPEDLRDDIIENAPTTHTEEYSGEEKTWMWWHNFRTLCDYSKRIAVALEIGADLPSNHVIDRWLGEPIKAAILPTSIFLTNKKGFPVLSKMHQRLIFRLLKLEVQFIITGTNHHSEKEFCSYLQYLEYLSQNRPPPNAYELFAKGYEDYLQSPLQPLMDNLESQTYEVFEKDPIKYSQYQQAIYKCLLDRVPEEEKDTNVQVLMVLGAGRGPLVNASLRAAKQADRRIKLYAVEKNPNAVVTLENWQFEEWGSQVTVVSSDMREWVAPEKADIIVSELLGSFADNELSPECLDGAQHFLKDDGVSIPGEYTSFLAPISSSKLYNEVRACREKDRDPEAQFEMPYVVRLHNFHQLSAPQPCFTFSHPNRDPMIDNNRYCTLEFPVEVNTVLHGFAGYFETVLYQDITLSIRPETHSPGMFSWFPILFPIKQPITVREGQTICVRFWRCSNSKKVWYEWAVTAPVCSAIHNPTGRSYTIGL
PRMT5-MEP50, sequence (Q9BQA1 whole entry partner): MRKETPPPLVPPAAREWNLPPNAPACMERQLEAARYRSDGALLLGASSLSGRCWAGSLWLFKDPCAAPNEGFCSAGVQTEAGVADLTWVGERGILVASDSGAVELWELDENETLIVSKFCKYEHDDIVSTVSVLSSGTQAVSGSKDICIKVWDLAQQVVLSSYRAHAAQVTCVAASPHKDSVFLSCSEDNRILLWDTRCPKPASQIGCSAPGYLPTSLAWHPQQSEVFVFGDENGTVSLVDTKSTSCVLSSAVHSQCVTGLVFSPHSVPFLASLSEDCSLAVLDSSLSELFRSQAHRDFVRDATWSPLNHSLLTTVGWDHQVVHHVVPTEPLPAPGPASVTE

As for `CCc1cc(NCCCN(C)C)c2ccc(OCc3cncc(-n4cc(-c5ccn(C)n5)c5c(N)ncnc54)c3)cc2n1` [Compound I-170], the IC50 at METTL3/METTL14 is below 10 nM; at PRMT5-MEP50, above 1000 nM; with MOLM-13 cells it was below 1000 nM.
In the case of `CCc1cc(N2CCOCC2)c2ccc(OCc3cncc(-n4cc([C@H]5CCCO5)c5c(N)ncnc54)c3)cc2n1` [Compound I-142], the IC50 at METTL3/METTL14 was 10 to 100 nM; with MOLM-13 cells, below 1000 nM.
Take `CS(=O)(=O)c1cn(-c2cncc(COc3ccc4ccc(N5CCC5)nc4c3)c2)c2ncnc(N)c12` [Compound I-185]: the IC50 at METTL3/METTL14 is 10 to 100 nM; at PRMT5-MEP50, above 1000 nM; with MOLM-13 cells, 1000 to 10000 nM.
Regarding `CCc1cc(NC)c2ccc(OCc3cncc(-n4cc(-c5ccn(CCOC)n5)c5c(N)ncnc54)c3)cc2n1` [Compound I-154], the values for the IC50 against METTL3/METTL14 and in the test on MOLM-13 cells were below 10 nM and below 1000 nM, respectively.
The like results for `CCc1cc(NCCOC)c2ccc(OCc3cncc(-n4cc([C@@H]5CCCO5)c5c(N)ncnc54)c3)cc2n1` [Compound I-141] were, in that order, below 10 nM and below 1000 nM.
For the compound `CCc1cc(N2CCNCC2)c2ccc(OCc3cncc(-n4cc([C@@H]5CCCO5)c5c(N)ncnc54)c3)cc2n1` [Compound I-149], the IC50 on METTL3/METTL14 is below 10 nM; in the test on MOLM-13 cells, 1000 to 10000 nM.
The like results for `CCc1cc(NCCOC)c2ncc(CCc3cncc(-n4cc(-c5ccn(C)n5)c5c(N)ncnc54)c3)cc2n1` [Compound I-132] were, in that order, below 10 nM and below 1000 nM.
Taken in the same sequence, the figures for `CCc1cc(NCCOC)c2c(F)cc(OCc3cncc(-n4cc(-c5ccn(C)n5)c5c(N)ncnc54)c3)cc2n1` [Compound I-229] were below 10 nM and below 1000 nM.
Taken in the same sequence, the figures for `CCc1cc(NCCOC)c2c(F)cc(CCc3cncc(-n4cc(-c5ccn(C)n5)c5c(N)ncnc54)c3)cc2n1` [Compound I-228] were below 10 nM and below 1000 nM.
With `CCc1cc(N2CCCC2)c2ccc(OCc3cncc(-n4ccc5c(N)ncnc54)c3)cc2n1` [Compound I-109], the IC50 is below 10 nM on METTL3/METTL14, above 1000 nM against PRMT5-MEP50 and below 1000 nM in the test on MOLM-13 cells.
`CCCc1cc(N)c2ccc(CCc3cncc(-n4cc(-c5ccn(C)n5)c5c(N)ncnc54)c3)cc2n1` [Compound I-131]: the results for the IC50 at METTL3/METTL14 and with MOLM-13 cells were below 10 nM and below 1000 nM, respectively.
The like results for `CCc1cc(N(C)C2CC2)c2ccc(OCc3cncc(-n4cc([C@@H]5CCCO5)c5c(N)ncnc54)c3)cc2n1` [Compound I-167] were, in that order, below 10 nM and below 1000 nM.
The like results for `CCc1cc(NCCOC)c2ncc(OCc3cncc(-n4cc([C@@H]5CCCO5)c5c(N)ncnc54)c3)cc2n1` [Compound I-152] were, in that order, below 10 nM and below 1000 nM.
The like results for `CCNc1ccc2ccc(CCc3cncc(-n4cc([C@H]5CCCO5)c5c(N)ncnc54)c3)cc2n1` [Compound I-156] were, in that order, below 10 nM and 1000 to 10000 nM.
Consider `COCc1cn(-c2cncc(COc3ccc4ccc(N5CCC5)nc4c3)c2)c2ncnc(N)c12` [Compound I-237], for which the figures for the IC50 against METTL3/METTL14 and with MOLM-13 cells were below 10 nM and 1000 to 10000 nM, respectively.
Take `CCNc1ccc2ccc(OCc3cncc(-n4cc([C@H]5CCCO5)c5c(N)ncnc54)c3)cc2n1` [Compound I-134]: the IC50 against METTL3/METTL14 is below 10 nM; in the test on MOLM-13 cells it was below 1000 nM.
Taken in the same sequence, the figures for `CCNc1ccc2ccc(OCc3cncc(-n4cc([C@@H]5CCCO5)c5c(N)ncnc54)c3)cc2n1` [Compound I-146] were below 10 nM and below 1000 nM.
Taken in the same sequence, the figures for `CCc1cc(N2CCOCC2)c2ncc(OCc3cncc(-n4cc(-c5ccn(C)n5)c5c(N)ncnc54)c3)cc2n1` [Compound I-150] were below 10 nM and below 1000 nM.
In the case of `CNc1ccc2ccc(CN(C)c3cccc(-n4cc(Br)c5c(N)ncnc54)c3)cc2n1` [Compound I-69], the IC50 against METTL3/METTL14, at PRMT5-MEP50, on METTL1/WDR4 and on METTL16 was above 1000 nM throughout.
Turning to `CNc1ccc2ccc(OCc3cncc(-n4cc(C5CCN(C)CC5)c5c(N)ncnc54)c3)cc2n1` [Compound I-33], the IC50 was 100 to 1000 nM at METTL3/METTL14, above 1000 nM against PRMT5-MEP50, above 1000 nM on METTL1/WDR4 and above 1000 nM against METTL16.
Turning to `CNc1ccc2ccc(OCc3cccc(-n4cc(CC5CC5)c5c(N)ncnc54)c3)cc2n1` [Compound I-79], the IC50 against METTL3/METTL14 was 10 to 100 nM; against PRMT5-MEP50, above 1000 nM; on METTL1/WDR4, above 1000 nM; on METTL16, above 1000 nM.
Regarding `Nc1ncnc2c1c([C@H]1CCCO1)cn2-c1cncc(COc2ccc3ccc(N4CCC4)nc3c2)c1` [Compound I-144], the IC50 on METTL3/METTL14 is below 10 nM; in the test on MOLM-13 cells, below 1000 nM.
In the case of `CNc1ccc2ccc(OCc3cc(-n4cc(Cl)c5c(N)ncnc54)ccc3F)cc2n1` [Compound I-80], the IC50 against METTL3/METTL14 was 10 to 100 nM; at PRMT5-MEP50 it was above 1000 nM; at METTL1/WDR4, above 1000 nM; at METTL16, above 1000 nM.
For `CCc1cc(N2CCOCC2)c2ccc(OCc3cncc(-n4cc([C@@H]5CCCO5)c5c(N)ncnc54)c3)cc2n1` [Compound I-143], the IC50 against METTL3/METTL14 is below 10 nM; in the test with MOLM-13 cells, below 1000 nM.
On to `CNc1ccc2ccc(OCc3cccc(-n4ccc5c(N)ncnc54)c3F)cc2n1` [Compound I-226], for which the IC50 against METTL3/METTL14 was 10 to 100 nM; against PRMT5-MEP50 it was above 1000 nM; on METTL1/WDR4, above 1000 nM; on METTL16, above 1000 nM.
`CNc1ccc2ccc(OCc3cccc(-n4cc(C5CCCC5)c5c(N)ncnc54)c3)cc2n1` [Compound I-86]: the IC50 on METTL3/METTL14 is 10 to 100 nM; at PRMT5-MEP50, above 1000 nM; at METTL1/WDR4 it was above 1000 nM; on METTL16, above 1000 nM.
